Source: patent publication US20240316023A1, “BENEDIN, PIPERIDINE, 2-BENZHYDRYL-3-HYDROXY-N-METHYL-, HYDROCHLORIDE AND DERIVATIVES THEREOF FOR USE IN TREATING KLEINE-LEVIN SYNDROME” (priority 2021, published 2024)

How the values were obtained:
[1] = target: T1, M3 (h) (antagonist radioligand) (Homo sapiens, UniProt P20309); test: Radioligand binding panel (Eurofins/CEREP), M3; conditions: 10^−5 M; % inhibition of control specific binding; read-out: % Inhibition at 10^−5M Benedin
T1 construct: CEREP (Eurofins, France), contract panel
Procedure: (§1) Benedin was tested at 10^−5 M, calculated as a % inhibition of control specific binding of a radioactively labeled ligand specific for each target.
(§2) This binding profile panel was broadly defined with roughly an equal number of selective, central and peripheral therapeutically relevant targets, including native animal tissues, radioligands and specific enzymes involved in cell cycle regulation in accordance with Eurofins Standard Operating Procedure.
(§3) For radioligand binding experiments, the half maximal inhibitory concentration (IC50) and the half maximal effective concentration (EC50) values were determined (via computer software) by nonlinear regression analysis of the competition curves using Hill equation curve fitting. The inhibition constants (Ki) were calculated using the Cheng-Prusoff equation (Ki=IC50/(1+(L/KD)), where L is the concentration of radioligand in the assay, and KD is the affinity of the radioligand for the receptor.^60
(§4) The results are expressed as a % control specific binding ([measured specific binding/control specific binding]×100) and as a % inhibition of control specific binding (100−[(measured specific binding/control specific binding)×100] obtained in the presence of the test compounds. […]

[2] = target: T2, M1 (h) (antagonist radioligand) (Homo sapiens, UniProt P11229); test: Radioligand binding panel (Eurofins/CEREP), M1; conditions: 10^−5 M; % inhibition of control specific binding; read-out: % Inhibition at 10^−5M Benedin
T2 construct: CEREP (Eurofins, France), contract panel
T2 sequence (P11229 1-460): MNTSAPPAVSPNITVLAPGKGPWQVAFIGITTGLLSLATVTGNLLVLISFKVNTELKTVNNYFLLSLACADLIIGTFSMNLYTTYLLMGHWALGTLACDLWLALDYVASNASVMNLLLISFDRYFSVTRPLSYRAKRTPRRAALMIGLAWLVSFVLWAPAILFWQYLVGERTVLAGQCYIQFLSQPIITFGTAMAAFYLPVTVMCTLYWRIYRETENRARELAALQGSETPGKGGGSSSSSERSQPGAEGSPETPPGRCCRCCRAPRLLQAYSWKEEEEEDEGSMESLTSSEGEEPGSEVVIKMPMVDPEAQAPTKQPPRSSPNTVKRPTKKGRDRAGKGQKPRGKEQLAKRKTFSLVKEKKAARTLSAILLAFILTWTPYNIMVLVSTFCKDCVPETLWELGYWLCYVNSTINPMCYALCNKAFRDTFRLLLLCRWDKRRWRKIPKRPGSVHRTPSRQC
Procedure: as §1, §2, §3, §4

T1 sequence (P20309 whole entry): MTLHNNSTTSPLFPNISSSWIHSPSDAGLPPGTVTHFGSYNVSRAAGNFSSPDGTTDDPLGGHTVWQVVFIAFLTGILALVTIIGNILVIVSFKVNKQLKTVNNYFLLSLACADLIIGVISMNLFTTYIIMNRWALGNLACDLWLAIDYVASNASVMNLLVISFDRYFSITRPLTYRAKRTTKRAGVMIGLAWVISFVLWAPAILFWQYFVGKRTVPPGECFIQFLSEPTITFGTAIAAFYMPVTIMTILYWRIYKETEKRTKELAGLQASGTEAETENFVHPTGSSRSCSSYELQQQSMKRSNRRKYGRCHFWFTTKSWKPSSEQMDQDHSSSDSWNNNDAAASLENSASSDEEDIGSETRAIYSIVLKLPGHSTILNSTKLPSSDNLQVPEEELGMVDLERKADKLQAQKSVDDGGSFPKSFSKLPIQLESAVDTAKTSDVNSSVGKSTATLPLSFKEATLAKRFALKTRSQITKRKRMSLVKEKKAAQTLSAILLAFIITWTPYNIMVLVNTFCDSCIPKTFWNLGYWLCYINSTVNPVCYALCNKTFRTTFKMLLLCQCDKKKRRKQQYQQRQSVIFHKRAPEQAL

CN1CCCC(O)C1C(c1ccccc1)c1ccccc1 (centres unmarked) [Benedin, 2-benzhydryl-3-hydroxy-N-methyl-piperidine]
inhibition at 10 µM [1]: 44.6% | inhibition at 10 µM [2]: 75%
